Legend:
Format in all cases: cell-based
[1] = test system: renal proximal tubule epithelial cells (RPTEC); assay: in vitro
Protocol: (§1) Cells were plated at 3,000 cells/well (RPTEC) or 5,000 cells/well (NHDF) in 96-well plates and incubated overnight at 37° C. The compounds were added to the wells, and the cells were incubated for 4 days. Alomar Blue was added to one set of plates and incubated for 4 hours. The plates were read when the compound was added (time zero) and at the end of the study. Fluorescence was read using 530 nm (excitation) and 590 nm (emission) according to the manufacturer's instructions.

erythrocytes = assay: Erythrocyte lysis assay; conditions: overnight 37° C., hematocrit 1%
Protocol: After incubation, the plates were centrifuged and the supernatant transferred to flat-bottomed 96-well plates. The supernatant was assayed using the QuantiChrom Hemoglobin kit according to the manufacturer's instructions. The IC50 values were calculated using GraphPad Prism.

Haemophilus influenzae = assay: Minimum inhibitory concentration assay; conditions: Mueller-Hinton broth, 18-24 hours at 35° C.; unit assumed
Protocol: (§2) The minimum inhibitory concentration (MIC) assay determines the lowest concentration of an antimicrobial agent required to inhibit the growth of test organisms after incubation. MIC assays were performed against an internal standard panel of organisms to identify compounds with antimicrobial activity. The MIC assay was subsequently repeated against other specialized microbial panels. Assays were conducted against the following clinically relevant microorganisms: Staphylococcus aureus subsp. aureus, Staphylococcus epidermis, Escherichia coli, Pseudomonas aeruginosa, Haemophilius influenzae. The compounds were tested for bacteriocidal activity, time course of killing, toxicity against tissue culture cells grown in vitro, and in some cases were tested for antimicrobial activity in vivo. The MIC assays were performed according to the Performance Standards for Antimicrobial Susceptibility Testing, 2006, vol. M100-S15, Fifteenth Informational Supplement, NCCLS, 940 West Valley Road, Suite 1400, Wayne, Pa. 19087. […] The solution was then filter-sterilized through a 0.22 μm filter. Two-fold serial dilutions of polymer were prepared in Mueller-Hinton broth with cations aliquotted into 96-well microtiter plates. The plates were then inoculated with 5×10^5 cells/mL of target organism and incubated 18-24 hours at 35° C. […] The MIC value is the lowest concentration of compound that inhibits growth; accordingly, a higher MIC value indicates less potency where a lower MIC valued indicated more potency.

Pseudomonas aeruginosa = assay: Minimum inhibitory concentration assay; conditions: Mueller-Hinton broth, 18-24 hours at 35° C.; unit assumed
Protocol: as §2

[2] = test system: Staphylococcus aureus subsp. aureus; assay: Minimum inhibitory concentration assay; conditions: Mueller-Hinton broth, 18-24 hours at 35° C.; unit assumed
Protocol: as §2

Staphylococcus epidermis = assay: Minimum inhibitory concentration assay; conditions: Mueller-Hinton broth, 18-24 hours at 35° C.; unit assumed
Protocol: as §2

Escherichia coli = assay: Minimum inhibitory concentration assay; conditions: Mueller-Hinton broth, 18-24 hours at 35° C.; unit assumed
Protocol: as §2

[3] = test system: human lung epithelial Carcinoma cell line (A 549); assay: Cytotoxicity assay, human lung epithelial cells; set-up: unit not given here; conditions: A 549, 96 hours, CellTiter-Glo
in vitro = conditions: human
Protocol: as §1

[4] = test system: normal human dermal fibroblasts (NHDF)
Protocol: as §1, with “Mammalian cell cytotoxicity assays were performed using two primary human cell lines: renal proximal tubule epithelial cells (RPTEC—Cambrex CC-2553) and normal human dermal fibroblasts (NHDF—Cambrex CC-2509). Cells” for “Cells”

Compound: 4,4′-trimethylene dipiperidinebispropanoic acid-diaminopropane heptamer
- Cytotoxicity (Kidney Epithelial IC50) [1]: 190 µg/mL
- Erythrocyte Lysis (Hemolysis IC50) (erythrocytes): >3200
- Haemophilus influenzae (MIC) (Haemophilus influenzae): 128 µg/mL
- Pseudomonas aeruginosa (MIC) (Pseudomonas aeruginosa): > 128 µg/mL
- Staphylococcus aureus subsp. aureus (MIC) [2]: 2 µg/mL
- Staphylococcus epidermis (MIC) (Staphylococcus epidermis): 1 µg/mL
- Escherichia coli (MIC) (Escherichia coli): 8 µg/mL
- Lung Epi IC50 [3]: 418.0

Compound: NCCCNC(=O)CCN1CCC(CCCC2CCN(CCC(=O)NCCCN)CC2)CC1 [4,4-trimethylene dipiperidinebispropanoic acid-diaminopropane]
- CC50 at 4 days (in vitro): > 512 µg/mL
- IC50 at 4 days (in vitro; RPTEC, 4 days incubation, Alomar Blue, read-out: Cytotoxicity (Kidney Epithelial IC50)): > 512 µg/mL
- IC50 (erythrocytes; Erythrocyte, read-out: Erythrocyte Lysis (Hemolysis IC50)): > 3200 µg/mL
- Haemophilus influenzae (MIC) (Haemophilus influenzae): > 128 µg/mL
- Pseudomonas aeruginosa (MIC) (Pseudomonas aeruginosa): > 128 µg/mL
- Staphylococcus aureus subsp. aureus (MIC) [2]: > 128 µg/mL
- Staphylococcus epidermis (MIC) (Staphylococcus epidermis): > 128 µg/mL
- Escherichia coli (MIC) (Escherichia coli): > 128 µg/mL

Compound: Poly (4,4′-trimethylene dipiperidine bispropanoic acid--N,N′-dimethyl-1,3-diaminopropane)
- Cytotoxicity (Human Dermal Fibroblast IC50) [4]: 5

Compound: Poly(4,4-trimethylene dipiperidine bispropanoic acid-diaminoethane)
- Cytotoxicity (Human Dermal Fibroblast IC50) [4]: 178

Compound: Poly(4,4′-dipiperidinebispropanoic acid-3,3′-diamino-N-methyl-dipropylamine) [Poly(4,4′-dipiperidinebispropanoic acid-3,3′-diamino-N-methy] [listing 1 of 2 here]
- Cytotoxicity (Human Dermal Fibroblast IC50) [4]: 3

Compound: Poly (4,4′-trimethylene dipiperidine bispropanoic acid-4,4′-trimethylene dipiperidine)
- Cytotoxicity (Human Dermal Fibroblast IC50) [4]: 3

Compound: Poly(4,4′-dipiperidinebispropionic acid-1,3-diaminopropane)
- Cytotoxicity (Human Dermal Fibroblast IC50) [4]: 7

Compound: Poly(4,4′-dipiperidinebispropanoic acid-3,3′-diamino-N-methyl-dipropylamine) [Poly(4,4′-dipiperidinebispropanoic acid-3,3′-diamino-N-methy] [listing 2 of 2 here]
- Cytotoxicity (Human Dermal Fibroblast IC50) [4]: 2

Compound: Poly(4,4′-trimethylenedipiperidinebispropionic acid-2-dydroxy 1,3-diaminopropane)
- Cytotoxicity (Human Dermal Fibroblast IC50) [4]: 50

Compound: Poly(piperazinebispropanoic acid-2,2-diaminodiethylamine)
- Cytotoxicity (Human Dermal Fibroblast IC50) [4]: 1111.6

Compound: Poly(piperazinebispropanoic acid-1,4-diaminobutane)
- Cytotoxicity (Human Dermal Fibroblast IC50) [4]: 1905

Compound: Poly(piperazinebispropanoic acid-N(3-aminopropyl)1,3-propanediamine)
- Cytotoxicity (Human Dermal Fibroblast IC50) [4]: 15.3

Compound: Poly(4,4′-trimethylene dipiperidinebispropanoic acid-1,4-benzyldiamine)
- Cytotoxicity (Human Dermal Fibroblast IC50) [4]: 4.703

Compound: Poly(4,4-trimethylene dipiperidinebispropanoic acid-diaminopropane)
- Cytotoxicity (Human Dermal Fibroblast IC50) [4]: 141.3

Compound: Poly(piperazinebispropanoic acid-3,3′ diamino-N-methyl-dipropylamine)
- Cytotoxicity (Kidney Epithelial IC50) [1]: 5.3 µg/mL

Compound: Poly(4,4′-dipiperidinebispropionic acid-1,4-diaminobutane)
- Cytotoxicity (Human Dermal Fibroblast IC50) [4]: 5

Compound: Poly(4,4-trimethylene dipiperidinebispropanoic acid-N(2-aminoethyl)-diaminoethane)
- Cytotoxicity (Human Dermal Fibroblast IC50) [4]: 1.7

Compound: Methyl ester terminated Poly(4,4-trimethylene dipiperidinebispropanoic acid-diaminopropane)
- Cytotoxicity (Kidney Epithelial IC50) [1]: 1.5 µg/mL

Compound: Carboxy terminated Poly(4,4-trimethylene dipiperidinebispropanoic acid-diaminopropane)
- Cytotoxicity (Kidney Epithelial IC50) [1]: 43 µg/mL

Compound: Poly(4,4′-dipiperidinebispropanoic acid-3,3′-diamino-dipropylamine) [Poly(4,4′-dipiperidinebispropanoic acid-3,3′-diamino-dipropy]
- Cytotoxicity (Human Dermal Fibroblast IC50) [4]: 2

Compound: Poly(4,4′-trimethylenedipiperidinebispropionic acid-bis(4-aminobutyl)ether)
- Cytotoxicity (Human Dermal Fibroblast IC50) [4]: 3

Compound: 4-guanidinobenzene terminated Poly(4,4-trimethylene dipiperidinebispropanoic acid-diaminopropane)
- Cytotoxicity (Kidney Epithelial IC50) [1]: 6 µg/mL

Compound: 4,4′-trimethylene dipiperidinebispropanoic acid-diaminopropane pentamer
- Erythrocyte Lysis (Hemolysis IC50) (erythrocytes): >3200
- Haemophilus influenzae (MIC) (Haemophilus influenzae): 64 µg/mL
- Pseudomonas aeruginosa (MIC) (Pseudomonas aeruginosa): > 128 µg/mL
- Staphylococcus aureus subsp. aureus (MIC) [2]: 16 µg/mL
- Staphylococcus epidermis (MIC) (Staphylococcus epidermis): 1 µg/mL
- Escherichia coli (MIC) (Escherichia coli): 16 µg/mL
- Lung Epi IC50 [3]: 259.0

Compound: Poly(4,4′-trimethylenedipiperidine-1,3-diamninopropane-N,N′-di-3-propionic acid)
- Cytotoxicity (Kidney Epithelial IC50) [1]: 2 µg/mL
- Cytotoxicity (Human Dermal Fibroblast IC50) [4]: 2

Compound: Poly(piperazinebispropanoic acid-N-methyl-2,2-diaminodiethylamine)
- Cytotoxicity (Human Dermal Fibroblast IC50) [4]: 3068.6

Compound: Poly(4,4-trimethylene dipiperidinebispropanoic acid 4,4′-dipiperidine)
- Cytotoxicity (Human Dermal Fibroblast IC50) [4]: 2.0
